Data from patent US20100267561A1, “HERBICIDAL PYRIDAZINONE DERIVATIVES” (priority 2007, published 2010).

Assays:
Assay in all cases: Test B pre-/postemergence plant response
Format in all cases: in vivo
[1] = system: goosegrass (Eleusine indica); conditions: for Goosegrass plant response rating: 8 g ai/ha
Summary of the method: (§1)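 Visual scoring from 0 (no effect) to 100 (complete control) against untreated controls was done 13 to 15 days after greenhouse treatment. Chemicals were formulated in a surfactant-containing non-phytotoxic solvent and applied to soil preemergence or to 1- to 4-leaf (2-18 cm) plants postemergence.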

[2] = system: blackgrass (Alopecurus myosuroides); conditions: for Blackgrass plant response rating: 8 g ai/ha
Summary of the method: as §1

[3] = system: morningglory (Ipomoea coccinea); conditions: for Morningglory plant response rating: 8 g ai/ha
Summary of the method: as §1

[4] = system: large crabgrass (Digitaria sanguinalis); conditions: for Crabgrass, Large plant response rating: 8 g ai/ha
Summary of the method: as §1

[5] = system: eastern black (E.B.) nightshade (Solanum ptycanthum); conditions: Preemergence
Summary of the method: as §1

[6] = system: surinam grass (Brachiaria decumbens); conditions: for Surinam Grass plant response rating: 8 g ai/ha
Summary of the method: as §1

[7] = system: common ragweed (Ambrosia elation); conditions: for Ragweed plant response rating: 8 g ai/ha
Summary of the method: as §1

[8] = system: wheat (Triticum aestivum); conditions: for Wheat plant response rating: 8 g ai/ha
Summary of the method: as §1

[9] = system: green foxtail (Setaria viridis); conditions: for Foxtail, Green plant response rating: 8 g ai/ha
Summary of the method: as §1

wild oat (Avena fatua) = conditions: for Oat, Wild plant response rating: 8 g ai/ha
Summary of the method: as §1

[10] = system: lambsquarters (Chenopodium album); conditions: for Lambsquarters plant response rating: 8 g ai/ha
Summary of the method: as §1

[11] = system: common (oilseed) sunflower (Helianthus annuus); conditions: Preemergence
Summary of the method: as §1

kochia (Kochia scoparia) = conditions: for Kochia plant response rating: 8 g ai/ha
Summary of the method: as §1

soybean (Glycine max) = conditions: for Soybean plant response rating: 8 g ai/ha
Summary of the method: as §1

[12] = Postemergence, 16 g ai/ha, scale 0 to 100
[13] = Postemergence, 31 g ai/ha, scale 0 to 100, 0 no effect, 100 complete control
[14] = Postemergence, 62 g ai/ha, scale 0 to 100, 0 no effect, 100 complete control
[15] = Preemergence, 16 g ai/ha, scale 0 to 100 (0 no effect, 100 complete control)
[16] = Preemergence, 31 g ai/ha, 0 to 100 scale, 0 no effect, 100 complete control
[17] = Preemergence, 62 g ai/ha, scale 0 to 100
[18] = 16 g ai/ha, scale 0 to 100 (0 no effect, 100 complete control)
[19] = 31 g ai/ha, 0 to 100 scale, 0 no effect, 100 complete control

For Cc1cc(-c2ccc(Cl)cc2)nn1-c1c(OC(=O)c2ccccc2Cl)cnn(C)c1=O [Compound 38], which “Goosegrass plant response rating” value ([1]; postemergence, 0-100 scale) is on record?
The value was 100.

And the “Plant response rating, Goosegrass” value [1, 12]?
Its value is 100.

What about the “Plant response rating, Goosegrass” value [1, 13] of the same compound?
The value was 100.

What about the “Plant response rating, Goosegrass” value [1, 14] of the same compound?
Its value is 100.

And the “Plant response rating, Goosegrass” value [1, 15]?
Its value is 85.

And the “Plant response rating, Goosegrass” value [1, 16]?
The value was 95.

What about the “Plant response rating, Goosegrass” value [1, 17] of the same compound?
The value was 95.

And the “Goosegrass plant response rating” value ([1]; Preemergence, scale 0 to 100)?
Its value is 45.

And the “Blackgrass plant response rating” value ([2]; postemergence, 0-100 scale)?
The value was 0.

And the “Plant response rating, Blackgrass” value [2, 12]?
The value was 40.

What about the “Plant response rating, Blackgrass” value [2, 13] of the same compound?
The value was 80.

What about the “Plant response rating, Blackgrass” value [2, 14] of the same compound?
Its value is 98.

What about the “Plant response rating, Blackgrass” value [2, 16] of the same compound?
Its value is 90.

And the “Plant response rating, Blackgrass” value [2, 17]?
The value was 100.

What about the “Blackgrass plant response rating” value ([2]; Preemergence, scale 0 to 100) of the same compound?
The value was 90.

What about the “Morningglory plant response rating” value ([3]; postemergence, 0-100 scale) of the same compound?
Its value is 0.

And the “Plant response rating, Morningglory” value [3, 12]?
The value was 0.

And the “Plant response rating, Morningglory” value [3, 13]?
Its value is 0.

And the “Plant response rating, Morningglory” value [3, 14]?
The value was 0.

What about the “Plant response rating, Morningglory” value [3, 15] of the same compound?
Its value is 0.

And the “Plant response rating, Morningglory” value [3, 16]?
Its value is 0.

What about the “Plant response rating, Morningglory” value [3, 17] of the same compound?
Its value is 0.

What about the “Morningglory plant response rating” value ([3]; Preemergence, scale 0 to 100) of the same compound?
The value was 0.

And the “Crabgrass, Large plant response rating” value ([4]; postemergence, 0-100 scale)?
Its value is 70.

What about the “Plant response rating, Crabgrass, Large” value [4, 12] of the same compound?
Its value is 70.

What about the “Plant response rating, Crabgrass, Large” value [4, 13] of the same compound?
Its value is 90.

And the “Plant response rating, Crabgrass, Large” value [4, 14]?
The value was 100.

And the “Plant response rating, Crabgrass, Large” value [4, 15]?
The value was 98.

And the “Plant response rating, Crabgrass, Large” value [4, 16]?
The value was 100.

And the “Plant response rating, Crabgrass, Large” value [4, 17]?
The value was 100.

What about the “Crabgrass, Large plant response rating” value ([4]; Preemergence, scale 0 to 100) of the same compound?
The value was 45.

What about the “Plant response rating, Nightshade, E. B.” value [5, 18] of the same compound?
Its value is 0.

What about the “Plant response rating, Nightshade, E. B.” value [5, 19] of the same compound?
Its value is 0.

What about the “Plant response rating, Nightshade, E. B.” value ([5]; 62 g ai/ha, scale 0 to 100) of the same compound?
Its value is 0.

And the “Nightshade, E. B. plant response rating” value ([5]; 8 g ai/ha, scale 0 to 100)?
The value was 0.

And the “Surinam Grass plant response rating” value ([6]; postemergence, 0-100 scale)?
The value was 90.

And the “Plant response rating, Surinam Grass” value [6, 12]?
Its value is 90.

What about the “Plant response rating, Surinam Grass” value [6, 14] of the same compound?
The value was 100.

What about the “Plant response rating, Surinam Grass” value [6, 15] of the same compound?
The value was 90.

And the “Plant response rating, Surinam Grass” value [6, 16]?
Its value is 100.

And the “Plant response rating, Surinam Grass” value [6, 17]?
Its value is 100.

What about the “Surinam Grass plant response rating” value ([6]; Preemergence, scale 0 to 100) of the same compound?
Its value is 90.

And the “Ragweed plant response rating” value ([7]; postemergence, 0-100 scale)?
Its value is 0.

And the “Plant response rating, Ragweed” value [7, 12]?
Its value is 0.

What about the “Plant response rating, Ragweed” value [7, 13] of the same compound?
Its value is 0.

And the “Plant response rating, Ragweed” value [7, 14]?
Its value is 0.

What about the “Plant response rating, Ragweed” value [7, 15] of the same compound?
The value was 0.

What about the “Plant response rating, Ragweed” value [7, 16] of the same compound?
The value was 0.

And the “Plant response rating, Ragweed” value [7, 17]?
Its value is 0.

What about the “Ragweed plant response rating” value ([7]; Preemergence, scale 0 to 100) of the same compound?
The value was 0.

What about the “Wheat plant response rating” value ([8]; postemergence, 0-100 scale) of the same compound?
The value was 10.

What about the “Plant response rating, Wheat” value [8, 12] of the same compound?
Its value is 45.

What about the “Plant response rating, Wheat” value [8, 14] of the same compound?
The value was 95.

And the “Plant response rating, Wheat” value [8, 15]?
Its value is 0.

And the “Plant response rating, Wheat” value [8, 16]?
Its value is 0.

And the “Plant response rating, Wheat” value [8, 17]?
The value was 90.

And the “Wheat plant response rating” value ([8]; Preemergence, scale 0 to 100)?
Its value is 0.

What about the “Foxtail, Green plant response rating” value ([9]; postemergence, 0-100 scale) of the same compound?
The value was 30.

And the “Plant response rating, Foxtail, Green” value [9, 12]?
Its value is 75.

What about the “Plant response rating, Foxtail, Green” value [9, 13] of the same compound?
Its value is 80.

What about the “Plant response rating, Foxtail, Green” value [9, 14] of the same compound?
Its value is 98.

And the “Plant response rating, Foxtail, Green” value [9, 15]?
Its value is 100.

And the “Plant response rating, Foxtail, Green” value [9, 16]?
Its value is 100.

And the “Plant response rating, Foxtail, Green” value [9, 17]?
The value was 100.

What about the “Foxtail, Green plant response rating” value ([9]; Preemergence, scale 0 to 100) of the same compound?
The value was 30.

And the “Oat, Wild plant response rating” value (wild oat (Avena fatua); postemergence, 0-100 scale)?
Its value is 80.

And the “Plant response rating, Oat, Wild” value (wild oat (Avena fatua); [12])?
Its value is 90.

What about the “Plant response rating, Oat, Wild” value (wild oat (Avena fatua); [13]) of the same compound?
The value was 95.

And the “Plant response rating, Oat, Wild” value (wild oat (Avena fatua); [14])?
The value was 100.

What about the “Plant response rating, Oat, Wild” value (wild oat (Avena fatua); [15]) of the same compound?
The value was 60.

And the “Plant response rating, Oat, Wild” value (wild oat (Avena fatua); [16])?
The value was 85.

And the “Plant response rating, Oat, Wild” value (wild oat (Avena fatua); [17])?
The value was 90.

And the “Oat, Wild plant response rating” value (wild oat (Avena fatua); Preemergence, scale 0 to 100)?
The value was 0.

And the “Lambsquarters plant response rating” value ([10]; postemergence, 0-100 scale)?
The value was 0.

And the “Plant response rating, Lambsquarters” value [10, 12]?
The value was 0.

And the “Plant response rating, Lambsquarters” value [10, 13]?
Its value is 0.

And the “Plant response rating, Lambsquarters” value [10, 14]?
The value was 0.

What about the “Plant response rating, Lambsquarters” value [10, 15] of the same compound?
Its value is 0.

And the “Plant response rating, Lambsquarters” value [10, 16]?
Its value is 0.

And the “Plant response rating, Lambsquarters” value [10, 17]?
Its value is 0.

And the “Lambsquarters plant response rating” value ([10]; Preemergence, scale 0 to 100)?
The value was 0.

And the “Plant response rating, Sunflower” value [11, 18]?
Its value is 0.

What about the “Plant response rating, Sunflower” value [11, 19] of the same compound?
Its value is 0.

What about the “Plant response rating, Sunflower” value ([11]; 62 g ai/ha, scale 0 to 100) of the same compound?
Its value is 0.

What about the “Sunflower plant response rating” value ([11]; 8 g ai/ha, scale 0 to 100) of the same compound?
Its value is 0.

And the “Kochia plant response rating” value (kochia (Kochia scoparia); postemergence, 0-100 scale)?
The value was 0.

And the “Plant response rating, Kochia” value (kochia (Kochia scoparia); [12])?
Its value is 0.

What about the “Plant response rating, Kochia” value (kochia (Kochia scoparia); [13]) of the same compound?
The value was 0.

What about the “Plant response rating, Kochia” value (kochia (Kochia scoparia); [14]) of the same compound?
Its value is 0.

And the “Plant response rating, Kochia” value (kochia (Kochia scoparia); [15])?
The value was 0.

What about the “Kochia plant response rating” value (kochia (Kochia scoparia); Preemergence, scale 0 to 100) of the same compound?
The value was 0.

What about the “Soybean plant response rating” value (soybean (Glycine max); postemergence, 0-100 scale) of the same compound?
Its value is 0.

What about the “Plant response rating, Soybean” value (soybean (Glycine max); [12]) of the same compound?
The value was 0.

What about the “Plant response rating, Soybean” value (soybean (Glycine max); [14]) of the same compound?
Its value is 0.

What about the “Plant response rating, Soybean” value (soybean (Glycine max); [15]) of the same compound?
Its value is 0.

And the “Plant response rating, Soybean” value (soybean (Glycine max); [16])?
The value was 0.

What about the “Plant response rating, Soybean” value (soybean (Glycine max); [17]) of the same compound?
Its value is 0.

What about the “Soybean plant response rating” value (soybean (Glycine max); Preemergence, scale 0 to 100) of the same compound?
Its value is 0.
